Assay [1] concerns 9 epidermal tone genes. Put plainly: Stem Cell Factor/Endothelin 1 driven ex-vivo human skin tissue, regulation of tone genes vs untreated control. The class given is cell-based. To be noted: number of the 9 epidermal genes regulated, Stem Cell Factor/Endothelin 1 driven tissue sample, 37° C. and 70% humidity. The method, then: Referring to FIGS. 19 to 23, examples (of 2-10 experiments each) are shown for the regulation of the 9 epidermal tone genes against an untreated control in ex-vivo tissue driven by the combination of Stem Cell Factor and Endothelin at 37° C. and 70% humidity for niacinamide, hexamidine, N-Acetyl glucosamine, kojic acid, tranexamic acid, and undecylenoyl phenylalanine. […] For instance, out of the 9 epidermal genes, at least one compound (undecylenoyl phenylalanine) regulated 5 genes (with a statistical significance of p<0.1 or better) while two compounds regulated 2 or fewer genes (with a p<0.1 or better). Table 2 below summarizes the number of epidermal genes regulated by certain materials in a Stem Cell Factor/Endothelin 1 driven tissue sample with a statistical significance of p≤0.1.
In example embodiments, tone is driven by application of stem cell factor and/or endothelin (with skin preparation, culturing, and mRNA processing being completed as previously described). In an example embodiment, skin samples are placed within 6-well plates, with 2.5 ml of media per well. A concentration of eighty nanograms per milliliter of stem cell factor as well as eighty nanograms per milliliter of endothelin was applied to tissue in the wells, with the media being refreshed daily. The culture was maintained for seven days. […]

Assay [2] concerns 9 epidermal tone genes. Put plainly: endogenously driven ex-vivo human skin tissue, regulation of tone genes (mRNA/PCR) vs untreated control. The class given is cell-based. The following applies: number of epidermal genes regulated, endogenously driven tissue sample, 37° C. and 70% humidity, 2-10 experiments each. On the procedure:
Referring to FIGS. 11 to 15, examples are shown for the regulation of the 9 epidermal tone genes against an untreated control in an endogenously driven ex-vivo tissue system at 37° C. and 70% humidity for niacinamide, hexamidine, N-Acetyl glucosamine, kojic acid, tranexamic acid, and undecylenoyl phenylalanine (2-10 experiments each). […] For instance, out of the 9 epidermal genes, at least one compound (Hexamidine) regulated 9 genes (with a statistical significance of p<0.1 or better) while two compounds regulated 5 or fewer genes (with a p<0.1 or better). Table 1 below summarizes the number of epidermal genes regulated by certain materials in an endogenously driven tissue sample with a statistical significance of p≤0.1.
Culturing involved setting up culture plates: putting 2.5 ml of media or treatment into each well of a 6-well tissue plate, adding one Millicell culture insert to each well, and putting 100 μl of 1×DMEM on the center of each insert membrane. Squares were selected randomly placed into each of the inserts (one piece of skin per insert), on top of the media on the membrane. The plates were stored at either 33° C. (though an additional non-limiting example would be 37° C. depending on the experiment endpoint). […]
Culture and treatment of the model comprised replicates of n=5 (though replicates of additional quantities may be used such as n=6). […]

Assay [3] concerns rat melanoma line known to produce melanin. Briefly: total melanin assay in melanoma cell culture. The class given is cell-based. The following applies: rat melanoma cell cultures; compared to controls. On the procedure:
(§1) The ex-vivo screening method has provided identification of agents consistent with in-vitro studies and which have proven positive clinically. One such example is hexyldecanol. […] For example, total melanin assays were performed using a rat melanoma line known to produce melanin. […] Therefore, promising tone agents such as hexyldecanol identified from the in-vitro model and the ex-vivo model have been tested in clinical settings.

A further assay has as its system tone genes. Briefly: Human Ex-vivo Pre-Clinical Model, fold regulation changes by clinical formulations. The class given is cell-based. To be noted: FIGS. 25a and 25b. On the procedure:
FIGS. 25a and 25b show two respective tables showing ex-vivo model fold regulation changes indicating significant down-regulation by clinical formulations in the Human Ex-vivo Pre-Clinical Model.
as §1

Assay [4] has as its system facial skin tone (spots, melanin evenness). Put plainly: 9-week clinical study, randomized, double-blind, vehicle-controlled, split-face. The format is in vivo, human. The source says: For example, hexyldecanol was compared to vehicle controls and positive controls (5% Niacinamide+1% undecylenoyl phenylalanine) through a 9-week period. Specifically the trial included a 9-week clinical study with a randomized, double-blind, round robin, vehicle-controlled, split-face design, including one week normalization period whereby 330 subjects received test product.

The next assay concerns tone genes of interest. Put plainly: ex-vivo tissue culture exposed to compounds known to stimulate the pigmentation pathway, tone gene regulation. The format is cell-based, human. The following applies: p≤0.1, minimum of 2-10 experiments each.

This note sets out measurements from patent US10732171B2, “Human skin sample methods and models for validating hypotheses for mechanisms driving skin pigmentation” (The Procter & Gamble Company, priority 2011, dated 2020).

With tranexamic acid, the “# of Genes with p ≤ 0.1” value in the assay on 9 epidermal tone genes [1] is 3. Moreover, the “# Genes (out of 9) with p ≤ 0.1” value with 9 epidermal tone genes [2] is on record as 7.
On to `CCCCCCCCC(CO)CCCCCC` (stereo not drawn) [Hexyldecanol, hexyldecanol], for which, in assay [3], the total melanin produced entry is “decreased total melanin”. In addition, the “gene regulation in ex-vivo model” value in the assay with tone genes is given as “down-regulation”. Also, the “overall comparison to vehicle” value in assay [4] (significant if p<0.10 (1-sided) vs. vehicle) is listed as “statistically better than vehicle controls”. Moreover, in assay [4] (versus vehicle control), the melanin evenness result is given as “significantly different from controls” and the “spot area fraction (total area of spots per face)” value is listed as “decreased versus the control group”.
Regarding “Stem Cell Factor: compound known to stimulate the pigmentation pathway; paracrine agent”, the “regulation of tone genes of interest” value with tone genes of interest is recorded as “up regulate one or more tone genes of interest”.
Turning to α-MSH [reference compound], the “regulation of tone genes of interest” value in the assay with tone genes of interest is on record as “up regulate one or more tone genes of interest”.
